This is an account of results in publication PMC7756582, “Prodrugs of γ‐Alkyl‐Modified Nucleoside Triphosphates: Improved Inhibition of HIV Reverse Transcriptase” (Angewandte Chemie (International Ed. in English), 2020).

SMILES strings stand for the structures.

The target of this assay is T1, human DNA polymerase β (Homo sapiens, UniProt P06746).
T1 construct: purchased Roboklon
In words: Primer extension assay with human DNA polymerase β. Format: biochemical. The conditions noted are these: single triphosphate, 66 μM, Pol β 6 U, 60 min. The protocol: Two different set‐ups have been used. First, a mixture of dATP, dCTP, dGTP, and γ‐alkyl‐TTP (N*) or ‐d4TTP (T*) was used as a mixture. The results obtained from these experiments were compared to those in which just γ‐alkyl‐TTP (N) or d4TTP (T) was used. In each experiment a primer extension without added polymerase (negative control, ‐ lane) and an experiment in which all four canonical NTPs were added (positive control, +lane) were used as controls.
Figure 4 Primer extension assay using DNA polymerase β and the γ‐alkyl‐dNTP 7 and 15. Lane 1 (−): dATP, dGTP, dCTP and TTP without human DNA polymerase β; lane 2 (+): dATP, dGTP, dCTP, and TTP with human Pol β; lane 3 (N, C4‐T): γ‐C4‐TTP 15 w; lane 4 (N, C18‐T): γ‐C18‐TTP 15 z; lane 5 (T, C4‐d4T): γ‐C4‐d4TTP 7 w; lane 6 (T, C11‐d4T): γ‐C11‐d4TTP 7 x; lane 7 (T, C18‐d4T): γ‐C18‐d4TTP 7 z; lane 8 (d4TTP): d4TTP. […]
Anti-HIV activity assay: Inhibition of HIV-1(IIIB)- and HIV-2(ROD)-induced cytopathicity in wild-type CEM/0 and thymidine kinase-deficient CEM/TK- cell cultures was measured in microtiter 96-well plates containing ~3·105 CEM cells/mL infected with 100 CCID50 of HIV per milliliter and containing appropriate dilutions of the test compounds. […]
2) For HIV- RT assay: The final assay solution (10 µL) consists of 50 mM Tris-HCl (pH 8.6 at 22 °C), 10 mM MgCl2, 40mM KCl, dNTPs 66 µM, HIV RT 6 U, Hybrid 0.32 µM in a reaction volume of 10 µL, incubated 37 °C for 15 min, 80 °C for 3 min; 50 mA, 45w for 4 h. […] The result was visualized by fluorescence imaging.
3) For human DNA pol β assay: The final assay solution (10 µL) consists of 50 mM Tris-HCl (pH 8.7), 10 mM MgCl2, 100mM KCl, 1.0 mM dithiothreitol, 0.4 mg/ml of bovine serum albumin, 15% glycerol, dNTPs 66 µM, DNA Polymerase Beta 6 U, Hybrid 0.32 µM in a reaction volume of 10 µL, incubated 37 °C for 60 min, 80 °C for 3 min; 50 mA, 45w for 4 h. […] The result was visualized by fluorescence imaging. […]
For the compound `CCCCOP(=O)(O)OP(=O)(O)OP(=O)(O)OCC1C=CC(n2cc(C)c(=O)[nH]c2=O)O1` (stereo not drawn) [7 w, γ‐C4‐d4TTP], the “primer extension by DNA polymerase β (substrate properties)” value is “good substrate”.
As for `CCCCCCCCCCCCCCCCCCOP(=O)(O)OP(=O)(O)OP(=O)(O)OCC1C=CC(n2cc(C)c(=O)[nH]c2=O)O1` (stereo not drawn) [7 z, γ‐C18‐d4TTP], the entry is “no incorporation was detected”; as for `Cc1cn(C2C=CC(COP(=O)(O)OP(=O)(O)OP(=O)(O)O)O2)c(=O)[nH]c1=O` (stereo not drawn) [2 t, d4TTP, reference compound], “efficiently incorporated”.
